Results on three molecules are retold here after publication PMC11091832 (Journal of medicinal chemistry, 2021).

Like-named read-outs stand apart in the source and are kept apart here.

The target in experiment [1] is T1, hD2LR (Homo sapiens, UniProt P14416). As to the kind of experiment: Radioligand binding, agonist [3H]-. Conditions: for (D3R/D2R) Ki ratio, [3H]-(R)-(+)-7-OH-DPAT: selectivity for D2R, value printed in parentheses.
The target in experiment [2] is T2, hD3R (Homo sapiens, UniProt P35462). Put plainly: Radioligand binding, agonist [3H]-.
T2 sequence (P35462 whole entry): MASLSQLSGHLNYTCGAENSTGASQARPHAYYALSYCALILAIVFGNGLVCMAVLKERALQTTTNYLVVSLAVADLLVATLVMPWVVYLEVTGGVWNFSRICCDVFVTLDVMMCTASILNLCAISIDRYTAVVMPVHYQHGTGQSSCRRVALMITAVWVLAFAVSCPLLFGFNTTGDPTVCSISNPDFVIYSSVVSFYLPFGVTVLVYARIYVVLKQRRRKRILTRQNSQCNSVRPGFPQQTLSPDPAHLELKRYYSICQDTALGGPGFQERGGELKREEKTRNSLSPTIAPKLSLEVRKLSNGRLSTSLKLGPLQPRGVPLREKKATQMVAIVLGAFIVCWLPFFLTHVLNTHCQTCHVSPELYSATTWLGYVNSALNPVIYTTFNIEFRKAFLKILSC
Experiment [3] addresses T1, hD2LR.
Experiment [4] concerns the target T2, hD3R.

T1 sequence (P14416 whole entry): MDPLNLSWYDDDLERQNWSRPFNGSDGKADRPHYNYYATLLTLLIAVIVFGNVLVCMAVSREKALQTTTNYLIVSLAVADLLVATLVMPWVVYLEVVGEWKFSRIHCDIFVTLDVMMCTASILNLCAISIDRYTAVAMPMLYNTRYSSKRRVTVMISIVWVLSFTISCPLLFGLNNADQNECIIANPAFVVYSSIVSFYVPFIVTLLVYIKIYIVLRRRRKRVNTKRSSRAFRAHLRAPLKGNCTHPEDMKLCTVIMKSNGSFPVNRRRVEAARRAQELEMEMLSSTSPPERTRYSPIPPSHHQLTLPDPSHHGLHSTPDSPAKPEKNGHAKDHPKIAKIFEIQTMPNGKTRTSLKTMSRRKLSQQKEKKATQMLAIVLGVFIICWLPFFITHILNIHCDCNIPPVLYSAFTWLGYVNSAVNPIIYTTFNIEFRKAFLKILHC

Consider `CN(CC[C@@H]1CC[C@@H](CNC(=O)c2cc3ccccc3[nH]2)C1)[C@@H]1Cc2cccc3[nH]c(=O)n(c23)C1` (relative stereo) [rel-trans-16b, N-((3-(2-(Methyl((R)-2-oxo-1,2,5,6-tetrahydro-4H-imidazo[4,5,1-ij]quinolin-5-yl)amino)ethyl)cyclopentyl)methyl)-1H-indole-2-carboxamide], for which the “(D3R/D2R) Ki ratio, [3H]-(R)-(+)-7-OH-DPAT” value in experiment [1] was “(17)”.
Regarding `C[C@H]1CO[C@@H](c2ccc(N)nc2)CN1CC=C1CCC(CNC(=O)c2cc3ccccc3[nH]2)C1` (mixture of isomers) [Compound 15, N-((3-(2-((2S,5S)-2-(6-Aminopyridin-3-yl)-5-methylmorpholino)ethylidene)cyclopentyl)methyl)-1H-indole-2-carboxamide], the inhibitory constant (Ki) in experiment [1] is 55.9 ± 4.78 nM; in experiment [2], 7.41 ± 0.323 nM; in experiment [3] it was 7.92 ± 0.772 µM; in experiment [4] it was 104 ± 7.65 nM.
As to `CN(CC[C@@H]1CC[C@H](CNC(=O)c2cc3ccccc3[nH]2)C1)[C@@H]1Cc2cccc3[nH]c(=O)n(c23)C1` (relative stereo) [rel-cis-16a, N-((3-(2-(Methyl((R)-2-oxo-1,2,5,6-tetrahydro-4H-imidazo[4,5,1-ij]quinolin-5-yl)amino)ethyl)cyclopentyl)methyl)-1H-indole-2-carboxamide], in experiment [1], the “(D3R/D2R) Ki ratio, [3H]-(R)-(+)-7-OH-DPAT” value is “(9.6)”.

In general, Ki refers to a dissociation constant, usually derived from enzyme kinetics or from competition with a known ligand.
